Target: human plasma kallikrein (Homo sapiens, UniProt P03952)
Assay: Kallikrein inhibition FLINT assay with quenched AMC peptide substrate Z-Gly-Pro-Arg-AMC (end point EP or kinetic KIN reads)
Type: biochemical
Settings: kinetic reads at 5 min intervals over 30 min; read-out: Kallikrein (KIN) IC50
Method: A fluorescence intensity (FLINT) based assay was used to monitor inhibition of human plasma kallikrein.
The Kallikrein FLINT assay was used with the following Z-Gly-Pro-Arg-AMC assay buffer: 50 mM Tris, pH 7.5, 100 mM NaCl, 5 mM CaCl2, 0.1 mg/mL BSA, 0.03% CHAPS. Assay buffer was prepared by mixing all ingredients fresh. 2× Z-Gly-Pro-Arg-AMC peptide substrate was prepared by diluting 10 mM stock into 1× assay buffer for a 100 μM working concentration (50 μM final concentration).
Test compound(s) were run in an 11-point, 3-fold serial dilution with a final top compound concentration of 1 μM. Final DMSO in assay was 2%. Plasma kallikrein was pre-incubated for 30-minute with compound and then 50 μM substrate was added to initiate the reaction. The assay was run with either end point (EP) reads at 30 min or kinetic (KIN) reads at 5 min intervals over 30 minutes.
Percent inhibition (IC50) curves were generated per compound tested, and data was analyzed using a 4-parameter logistic fit using GeneData Screener. The relative fluorescence unit (RFU) values were normalized to percent inhibition using the following equation: % inhibition=((HC−LC)−(compound−LC)/(HC−LC))*100
An 11-point dose response curve for the test compound(s) was generated using GENDATA to determine IC50 value based on the following equation: Y=Bottom+(Top−Bottom)/(1+10^((log IC50−X)*HillSlope))
Results listed in columns with […] designation were measured using endpoint reads where a single fluorescence reading was measured for each well at a 30 min timepoint.

Chain of human plasma kallikrein (P03952 391-638 limits assumed): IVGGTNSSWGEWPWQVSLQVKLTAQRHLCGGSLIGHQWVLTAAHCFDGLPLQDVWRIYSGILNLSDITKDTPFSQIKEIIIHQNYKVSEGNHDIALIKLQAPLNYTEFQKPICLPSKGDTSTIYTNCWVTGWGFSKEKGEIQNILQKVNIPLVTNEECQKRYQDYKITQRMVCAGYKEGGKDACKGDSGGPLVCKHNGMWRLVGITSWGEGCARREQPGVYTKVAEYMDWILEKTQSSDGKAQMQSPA
Chain of human plasma kallikrein (P03952 20-390 partner limits assumed): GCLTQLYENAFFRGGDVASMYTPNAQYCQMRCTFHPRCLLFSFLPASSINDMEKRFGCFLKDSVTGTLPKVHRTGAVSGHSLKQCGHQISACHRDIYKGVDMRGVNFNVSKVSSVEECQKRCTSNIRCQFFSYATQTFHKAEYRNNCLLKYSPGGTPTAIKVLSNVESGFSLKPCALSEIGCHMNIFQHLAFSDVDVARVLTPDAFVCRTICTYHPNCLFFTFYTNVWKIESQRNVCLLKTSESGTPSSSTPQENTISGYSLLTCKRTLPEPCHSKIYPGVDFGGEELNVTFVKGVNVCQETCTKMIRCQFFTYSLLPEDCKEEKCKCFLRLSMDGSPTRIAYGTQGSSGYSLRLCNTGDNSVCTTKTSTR

IC50 | SMILES
131 nM | CC(=O)N(C)CC(c1ccc(-c2c(-n3cnnn3)ccc(Cl)c2F)c[n+]1[O-])n1cc(-c2cc[n+]([O-])cc2)cn1 (stereo not drawn) [Example P351]
88.1 nM | Cn1nccc1-c1cnn(C(Cn2cc(F)cn2)c2ccc(-c3c(C(F)F)ccc(Cl)c3F)c[n+]2[O-])c1 (stereo not drawn) [Example Q30]
375 nM | COc1cc(C(CC2CC2)n2cc(-c3cnn(C)c(=O)c3)cn2)[n+]([O-])cc1-c1c(C#N)ccc(Cl)c1F (single isomer, unassigned) [Example Q10]
93.8 nM | CN(CC(c1ccc(-c2c(-n3cnnn3)ccc(Cl)c2F)c[n+]1[O-])n1cc(-c2ccnc(C(F)(F)F)c2)cn1)C(=O)CCC(=O)N1CCCCC1 (single isomer, unassigned) [Example P400]
322 nM | COCC[C@H](c1ccc(-c2c(-n3cc(Cl)nn3)ccc(Cl)c2F)c[n+]1[O-])n1cc(-c2c(F)cnn2C(F)F)cn1 [Example P626]
51.3 nM | O=C(c1cnn(CC(c2ccc(-c3c(-n4cnnn4)ccc(Cl)c3F)c[n+]2[O-])n2cc(-c3cc[n+]([O-])cc3)cn2)c1)N1CCCCC1 (stereo not drawn) [Example P292]
24 nM | COC(=O)Nc1ccc(-c2cnn(C(CCOC(C)C)c3ccc(-c4c(-n5cnnn5)ccc(Cl)c4F)c[n+]3[O-])c2)cc1 (single isomer, unassigned) [Example P192]
176 nM | COCCC(c1ccc(-c2c(-n3cnnn3)ccc(Cl)c2F)c[n+]1[O-])n1cc(-n2ccnc2)cn1 (single isomer, unassigned) [Example P527]
16.2 nM | [O-][n+]1ccc(-c2cnn(C(Cc3ccc(Cl)cc3)c3ccc(-c4cc(Cl)ccc4-n4cnnn4)c[n+]3[O-])c2)cc1 (stereo not drawn) [Example P172]
21.6 nM | COC(=O)Nc1ccc(-c2cnn(C(CN(C)C(=O)OC)c3ccc(-c4c(-n5cnnn5)ccc(Cl)c4F)c[n+]3[O-])c2)cc1 (stereo not drawn) [Example P476]
252 nM | [O-][n+]1cc(-c2c(-n3cnnn3)ccc(Cl)c2F)ccc1C(CC1CC1)n1cc(-c2ccc3c(c2)OCCO3)cn1 (stereo not drawn) [Example P271]
29.5 nM | COc1cc(C(CC2CC2)n2cc(-c3ncnn3C)cn2)[n+]([O-])cc1-c1cc(Cl)ccc1-n1cc(C(F)(F)F)nn1 (single isomer, unassigned) [Example P918]
53.3 nM | O=C(NC1CC1)c1ccc(-c2cnn(C(CC3CCCCO3)c3ccc(-c4c(-n5cnnn5)ccc(Cl)c4F)c[n+]3[O-])c2)cc1 (single isomer, unassigned) [Example P80]
27.2 nM | [O-][n+]1ccc(-c2cnn(C(Cn3cccn3)c3ccc(-c4c(-n5cnnn5)ccc(Cl)c4F)c[n+]3[O-])c2)cc1 (stereo not drawn) [Example P348]
2370 nM | O=C(O)c1ccc(-c2cnn(C(CC3CC3C(=O)N3CCC(c4ccccc4)C3)c3ccc(-c4cc(Cl)ccc4-n4cnnn4)c[n+]3[O-])c2)cc1 (single isomer, unassigned) [Example P99]
79.8 nM | O=C(NC1CC1)c1ccc(-c2cnn(C(Cc3ccc(-c4ccccc4)cc3)c3ccc(-c4cc(Cl)ccc4-n4cnnn4)c[n+]3[O-])c2)cc1 (stereo not drawn) [Example P87]
556 nM | NC(=O)C1CC1CC(c1ccc(-c2c(-n3cnnn3)ccc(Cl)c2F)c[n+]1[O-])n1cc(-c2ccc(N)nc2F)cn1 (single isomer, unassigned) [Example P337]
385 nM | [O-][n+]1cc(-c2c(-n3cnnn3)ccc(Cl)c2F)ccc1C(CC1CC1)n1cc(-c2ccnc(C(F)(F)F)n2)cn1 (stereo not drawn) [Example P295]
7.3 nM | O=C1CCCN1CC(c1ccc(-c2c(-n3cnnn3)ccc(Cl)c2F)c[n+]1[O-])n1cc(-c2ccnc(F)c2)cn1 (single isomer, unassigned) [Example P382]
247 nM | [O-][n+]1cc(-c2c(-n3cnnn3)ccc(Cl)c2F)ccc1[C@@H](CC1CC1)n1cc(-c2cn(C(F)F)nn2)cn1 [Example P594]
> 274 nM | O=C(O)c1ccc(-c2cnn(C(Cc3ccn(C(F)F)n3)c3ccc(-c4c(C(F)F)ccc(Cl)c4F)c[n+]3[O-])c2)cc1 (single isomer, unassigned) [Example Q70]
0.9 nM | NC(=O)c1ccc(-c2cnn(C(CCOC(F)F)c3ccc(-c4c(-n5cnnn5)ccc(Cl)c4F)c[n+]3[O-])c2)cc1F (single isomer, unassigned) [Example P928]
324 nM | O=C(Cc1cnn(CC(c2ccc(-c3c(-n4cnnn4)ccc(Cl)c3F)c[n+]2[O-])n2cc(-c3ccnc(C(F)(F)F)c3)cn2)c1)N1CCCCC1 (stereo not drawn) [Example P475]
10 nM | COc1cc(C(Cc2ccn(C(F)F)n2)n2cc(-c3ccc(C(N)=O)c(F)c3)cn2)[n+]([O-])cc1-c1c(C(F)F)ccc(Cl)c1F (stereo not drawn) [Example Q75]

IC50 | SMILES
5.8 nM | NC(=O)c1ccc(-c2cnn(C(CCOC(F)F)c3ccc(-c4c(-n5cnnn5)ccc(Cl)c4F)c[n+]3[O-])c2)cc1F (single isomer, unassigned) [Example P929]
22.9 nM | COC(=O)N(C)CC(c1ccc(-c2c(-n3cnnn3)ccc(Cl)c2F)c[n+]1[O-])n1cc(-c2ccc(N)nc2F)cn1 (stereo not drawn) [Example P482]
74.5 nM | NC(=O)C1CC1CC(c1ccc(-c2c(-n3cnnn3)ccc(Cl)c2F)c[n+]1[O-])n1cc(-c2ccc(N)nc2F)cn1 (single isomer, unassigned) [Example P338]
2.3 nM | NC(=O)c1ccc(-c2cnn(C(Cc3ccn(C(F)F)n3)c3ccc(-c4c(-n5cc(C(F)(F)F)nn5)ccc(Cl)c4F)c[n+]3[O-])c2)cc1F (stereo not drawn) [Example P952]
27 nM | NC(=O)c1ccc(-c2cnn(C(Cc3ccn(C(F)F)n3)c3ccc(-c4c(-n5cnnn5)ccc(Cl)c4F)c[n+]3[O-])c2)cc1F (single isomer, unassigned) [Example P932]
159 nM | O=C(C1CC1CC(c1ccc(-c2c(-n3cnnn3)ccc(Cl)c2F)c[n+]1[O-])n1cc(-c2ccncc2)cn1)N1CCC(c2ccccc2)C1 (stereo not drawn) [Example P253]
895 nM | [O-][n+]1cc(-c2cc(Cl)ccc2-n2cnnn2)ccc1C(Cc1ccc(Cl)cc1)n1cc(-c2cc(Cl)ccc2-n2cnnn2)cn1 (stereo not drawn) [Example P152]
14.2 nM | COc1cc(C(CC2CC2)n2cc(-c3ncnn3C(F)F)cn2)[n+]([O-])cc1-c1cc(Cl)ccc1-n1cc(C(F)(F)F)nn1 (single isomer, unassigned) [Example P940]
14.3 nM | [O-][n+]1cc(-c2c(-n3cnnn3)ccc(Cl)c2F)ccc1C(CCOC(F)F)n1cc(-c2ccnc(C(F)(F)F)c2)cn1 (stereo not drawn) [Example P462]
159 nM | [O-][n+]1cc(-c2c(-n3cnnn3)ccc(Cl)c2F)ccc1C(Cn1cc(F)cn1)n1cc(-c2cc(C(F)(F)F)ncn2)cn1 (stereo not drawn) [Example P468]
0.4 nM | NC(=O)c1ccc(-c2cnn(C(Cc3ccn(C(F)F)n3)c3ccc(-c4c(-n5cnnn5)ccc(Cl)c4F)c[n+]3[O-])c2)cc1F (single isomer, unassigned) [Example P933]
17.2 nM | [O-][n+]1cc(-c2c(-n3cnnn3)ccc(Cl)c2F)ccc1C(Cn1cc(F)cn1)n1cc(-c2ccnc(C(F)(F)F)c2)cn1 (stereo not drawn) [Example P333]
217 nM | COCC[C@H](c1ccc(-c2c(-n3cnnn3)ccc(Cl)c2F)c[n+]1[O-])n1cc(-c2c(Cl)cnn2C(F)F)cn1 [Example P623]
13.8 nM | [2H]C([2H])([2H])OCCC(c1ccc(-c2c(-n3cnnn3)ccc(Cl)c2F)c[n+]1[O-])n1cc(-c2ccc(NC(=O)OC)cc2)cn1 (stereo not drawn) [Example P289]
775 nM | NC(=O)C1CC1CC(c1ccc(-c2c(-n3cnnn3)ccc(Cl)c2F)c[n+]1[O-])n1cc(-c2cc[n+]([O-])cc2)cn1 (single isomer, unassigned) [Example P282]
702 nM | NC(=O)c1ccc(-c2cnn(C(CCOC(F)F)c3ccc(-c4c(-n5cc(Cl)nn5)ccc(Cl)c4F)c[n+]3[O-])c2)cc1 (single isomer, unassigned) [Example P895]
25.2 nM | COc1cc(C(CC2CC2)n2cc(-c3ccc(C(N)=O)c(F)c3)cn2)[n+]([O-])cc1-c1cc(Cl)ccc1C#N (stereo not drawn) [Example Q59]
29.1 nM | COC(=O)Nc1ccc(-c2cnn(C(CC3CCCCO3)c3ccc(-c4c(-n5cnnn5)ccc(Cl)c4F)c[n+]3[O-])c2)cc1 (single isomer, unassigned) [Example P115]
4.3 nM | O=C(c1ccn(CC(c2ccc(-c3c(-n4cnnn4)ccc(Cl)c3F)c[n+]2[O-])n2cc(-c3cc[n+]([O-])cc3)cn2)n1)N1CCCCC1 (stereo not drawn) [Example P447]
806 nM | [O-][n+]1cc(-c2c(C(F)F)ccc(Cl)c2F)ccc1C(Cn1cc(F)cn1)n1cc(-c2ccnc(C(F)(F)F)c2)cn1 (single isomer, unassigned) [Example Q22]
7 nM | COC(=O)Nc1ccc(-c2cnn(C(Cc3ccc(Cl)cc3)c3ccc(-c4c(-n5cnnn5)ccc(Cl)c4F)c[n+]3[O-])c2)cc1 (single isomer, unassigned) [Example P160]
30.7 nM | NC(=O)c1ccc(-c2cnn(C(Cc3ccn(C(F)F)n3)c3ccc(-c4c(-n5cc(Cl)nn5)ccc(Cl)c4F)c[n+]3[O-])c2)cc1 (single isomer, unassigned) [Example P910]
3 nM | COC(=O)Nc1ccc(-c2cnn(C(CCOC(F)F)c3ccc(-c4c(-n5cnnn5)ccc(Cl)c4F)c[n+]3[O-])c2)cc1 (stereo not drawn) [Example P226]
72.2 nM | COC(=O)Nc1ccc(-c2cnn(C(CC3CCCCC3)c3ccc(-c4c(-n5cnnn5)ccc(Cl)c4F)c[n+]3[O-])c2)cc1 (stereo not drawn) [Example P102]

From patent US11814364B2, “Pyridine N-oxide derivatives useful as factor XIa inhibitors” (Janssen Pharmaceutica NV, priority 2021, dated 2023)
